For one data set, the system named is MDA-MB-231 cells. Briefly: CyQuant viable cell number assay, MDA-MB-231. It counts as cell-based, human. The protocol:
(§1) CyQuant assay was performed to evaluate compounds as previously reported. Details are presented in Supplementary Information, “Methods”. […]
(§2) 1.2.6. Cell viability assays
(§3) CyQuant assay was performed to evaluate compounds as previously reported [1 -3] . Briefly, cells (5 x 10^3 per well, 100 µl) in culture in 96-well plates were treated once with 0 -10 µM concentrations of H120, H105, […]
(§4) concentration of H182 for 6 h and then treated with 0- 100 nM docetaxel or 0-20 µM cisplatin for a total of 72 h. Viable cell numbers were assessed by a CyQuant cell proliferation kit according to the manufacturer’s instructions (Thermo/Life Technologies Corp, Carlsbad, CA). Viable cell numbers were normalized to that of DMSO (control)-treated samples. […]

Data set [1] concerns the target Stat5:Stat5 DNA-binding activity. Briefly: EMSA of Stat5:Stat5 DNA-binding activity in nuclear extracts of EGF-stimulated NIH3T3/hEGFR. The note with it: Fig. 1C, MGFe probe, 30 min. Format: biochemical, mouse. Here is the method:
(§5) These studies were carried out as previously described using the ^32P-labeled oligonucleotide probes, hSIE (high affinity sis-inducible element from the c-fos gene, m67 variant, 5^′-[…]) that binds Stat1 and Stat3 [11, 12] and the mammary gland factor element (MGFe) from the bovine β–casein gene promoter (sense strand, 5^′-[…]) that binds Stat5 and Stat1 [11, 12]. Details are presented in Supplementary Information, “Methods”. […]
(§6) min, prior to incubation with the radiolabeled probe for 30 min at 30 °C and subjecting to EMSA analysis.
(§7) In another case, the nuclear extract was pre-incubated with the radiolabeled probe for 30 min at 30 °C prior to incubation with increasing concentration of H182 at room temperature for 30 min and subjecting to EMSA analysis. Bands corresponding to Stats DNA- binding activities were scanned and quantified using ImageJ and plotted as a percentage of control (vehicle) against the concentration of the inhibitor, from which the IC50 values were derived .

For the next data set, the system named is MDA-MB-468 cells. Briefly: CyQuant viable cell number assay, MDA-MB-468. It counts as cell-based, human. The note with it: Homo sapiens, MDA-MB-468, 72 h, read-out: IC50 viable cell numbers, MDA-MB-468. Here is the method: as §1, §2, §3, §4
Data set [2] deals with T1, Stat1:Stat1 DNA-binding activity (Mus musculus, UniProt P42225).
T1 construct: endogenous in cells; host or cells: EGF-stimulated NIH3T3/hEGFR fibroblasts (nuclear extract)
T1 sequence (P42225 2-749 limits assumed): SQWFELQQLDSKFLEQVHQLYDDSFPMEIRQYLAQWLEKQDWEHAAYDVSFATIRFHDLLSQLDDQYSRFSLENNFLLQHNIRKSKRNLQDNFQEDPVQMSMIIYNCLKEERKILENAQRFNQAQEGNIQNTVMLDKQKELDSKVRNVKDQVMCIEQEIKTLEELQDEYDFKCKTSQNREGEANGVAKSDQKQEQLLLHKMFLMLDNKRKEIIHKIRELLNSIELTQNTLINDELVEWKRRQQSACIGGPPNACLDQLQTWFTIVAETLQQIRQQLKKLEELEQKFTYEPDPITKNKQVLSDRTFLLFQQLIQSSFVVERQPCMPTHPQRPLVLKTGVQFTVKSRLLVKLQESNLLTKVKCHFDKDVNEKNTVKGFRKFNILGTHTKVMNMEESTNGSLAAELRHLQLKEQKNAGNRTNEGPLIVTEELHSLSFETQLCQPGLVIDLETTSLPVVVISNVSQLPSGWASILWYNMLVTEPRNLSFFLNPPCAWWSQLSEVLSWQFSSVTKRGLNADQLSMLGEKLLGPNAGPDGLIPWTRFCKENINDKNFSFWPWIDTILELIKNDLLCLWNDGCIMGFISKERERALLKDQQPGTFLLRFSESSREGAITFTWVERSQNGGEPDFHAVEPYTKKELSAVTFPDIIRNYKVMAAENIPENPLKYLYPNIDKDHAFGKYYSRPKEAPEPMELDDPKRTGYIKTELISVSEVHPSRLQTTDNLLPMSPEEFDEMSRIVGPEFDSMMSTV
Description: EMSA of Stat1:Stat1 DNA-binding activity in nuclear extracts of EGF-stimulated NIH3T3/hEGFR. It counts as biochemical. The note with it: Fig. 1C, 30 min. The protocol:
as §5, §6, §7

Data set [3] addresses T2, Stat1:Stat3 DNA-binding activity (Mus musculus, UniProt P42227).
T2 construct: endogenous in cells; host or cells: EGF-stimulated NIH3T3/hEGFR fibroblasts (nuclear extract)
Description: EMSA of Stat1:Stat3 DNA-binding activity in nuclear extracts of EGF-stimulated NIH3T3/hEGFR. It counts as biochemical. The note with it: Fig. 1C, hSIE probe, 30 min. Here is the method:
(§8) Details are presented in Supplementary Information, “Methods”. […]
as §6, §7
Background: In EMSA bound probe runs differently from free probe, usually more slowly.

For data set [4], the target named is T3, Stat3:Stat3 DNA-binding activity (Mus musculus, UniProt P42227).
T3 construct: endogenous in cells; host or cells: NIH3T3/v-Src fibroblasts; EGF-stimulated NIH3T3/hEGFR fibroblasts (nuclear extracts)
T3 sequence (P42227 2-770 limits assumed): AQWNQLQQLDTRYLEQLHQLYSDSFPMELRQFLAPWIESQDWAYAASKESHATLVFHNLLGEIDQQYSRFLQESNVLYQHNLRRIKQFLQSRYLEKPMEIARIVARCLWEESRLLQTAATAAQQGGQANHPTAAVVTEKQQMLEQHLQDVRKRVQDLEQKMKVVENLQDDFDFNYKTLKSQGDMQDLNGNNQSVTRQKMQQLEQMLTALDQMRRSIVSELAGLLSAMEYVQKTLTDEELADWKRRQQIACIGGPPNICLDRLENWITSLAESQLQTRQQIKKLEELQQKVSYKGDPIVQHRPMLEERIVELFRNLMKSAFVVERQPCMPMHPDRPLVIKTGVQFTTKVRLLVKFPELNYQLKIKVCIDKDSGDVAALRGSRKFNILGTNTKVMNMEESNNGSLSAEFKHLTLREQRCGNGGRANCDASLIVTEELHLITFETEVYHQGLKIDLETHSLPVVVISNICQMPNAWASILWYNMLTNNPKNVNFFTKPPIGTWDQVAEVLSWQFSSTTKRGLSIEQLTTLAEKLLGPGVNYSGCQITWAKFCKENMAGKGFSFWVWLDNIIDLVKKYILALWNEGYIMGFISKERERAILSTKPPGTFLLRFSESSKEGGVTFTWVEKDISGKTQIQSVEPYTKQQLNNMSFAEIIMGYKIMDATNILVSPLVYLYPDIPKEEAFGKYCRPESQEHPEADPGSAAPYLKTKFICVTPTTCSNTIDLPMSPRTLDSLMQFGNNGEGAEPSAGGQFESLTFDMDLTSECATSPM
Briefly: EMSA of Stat3:Stat3 DNA-binding activity in nuclear extracts. It counts as biochemical. The note with it: for Stat3-inhibitory potency on replacing the para-fluorine: EMSA. The protocol: as §8, §6, §7

For data set [5], the system named is MDA-MB-231 tumor xenografts. Briefly: Subcutaneous MDA-MB-231 xenografts in athymic nude mice. Format: in vivo. Here is the method: Mice were housed in specific pathogen-free conditions in the animal facility. All animal experiments were conducted in accordance with the recommendations in the Guide for the Care and Use of Laboratory Animals on a protocol approved by the Institutional Animal Care and Use Committee (IACUC). Subcutaneous xenograft studies were performed as previously reported. Five-week-old female athymic nude mice were purchased from Envigo (Indianapolis, IN) or Charles River (Wilmington, MA) and maintained in the institutional animal facilities approved by the American Association for Accreditation of Laboratory Animal Care. […] Tumor sizes were monitored every 3–4 days, measured with calipers, and converted to tumor volume, V, according to the formula V = 0.52 × a^2 × b, where a, smallest superficial diameter, and b, largest superficial diameter. For each treatment group, the tumor volumes for each set of measurements were statistically analyzed relative to the control (DMSO-treated; 70% DMSO with sterile PBS) group.
Constitutively-active Stat3 promotes primary tumor development and the progression to therapy resistance. We proceeded to evaluate the in vivo antitumor efficacy against tumor growth in both human xenograft and mouse syngeneic models of TNBC. In four separate studies, we tested the efficacy of H182, H278 (HCl salt of H182), and H120. For these xenografts, the human breast cancer, MDA-MB-231 cells were injected subcutaneously into athymic nude mice. When tumors were palpable (80–120 mm^3), mice were grouped so that the mean tumor sizes were identical between groups and treated as follows: A) intraperitoneal (IP) injections of H182 at 10 mg/kg every other day for 33 days; B) oral gavage of H182 every day at 5 mg/kg for 20 days, and then increased to 20 mg/kg for additional 12 days; and C) oral gavage of H120 at 20 mg/kg, daily for 14 days, and then increased to 30 mg/kg, daily for additional 14 days.

Data set [6] deals with SH2 domain of pure recombinant Stat3 (Homo sapiens, UniProt P40763). Description: Stat3 fluorescence polarization (FP) assay. It counts as binding. The note with it: 0–10 μM, 5-carboxyfluorescein-GpYLPQTV-NH2 probe. Here is the method:
Details are presented in Supplementary Information, “Methods”.
The Stat3:azetidine compound interaction was investigated further by focusing on how the compounds might interfere with Stat3 dimerization (Stat3:Stat3), which occurs via pTyr peptide:SH2 domain interaction. […]
confocal microscope (Stellaris 8-STED Super -resolution , Germany) with a 60x oil lens and images were processed by ImageJ software.
1.2.9. Fluorescence polarization assay (FP)
These studies were conducted as previously reported using the labeled phosphopeptide, 5-carboxyfluorescein GpYLPQTV-NH 2 (where pY represents phospho-Tyr) as probe and purified recombinant Stat3, with some modifications. […]
10 µM of unlabeled GpYLPQTV-NH 2 (positive control) or H182 at 30 °C for 30 min in the indicated assay buffer conditions, prior to the addition of the labeled probe at 10 nM final concentration and incubated for 30 min at room temperature, and thereafter reading the FP signal at 10, 30, and 60 min using the SpectraMax ID5 (Molecular Devices, San Jose, CA), with the set gain adjustment at 35 mP. In some cases, the recombinant His-Stat3 was pre-incubated with the unlabeled GpYLPQTV-NH 2 or H182 at 0-10 µM for 10 min or at 0-50 µM for 30 min prior to incubation with the labeled probe, and thereafter reading the FP signal at 10, 30, or 60 min using the SpectraMax ID5, with the set gain adjustment at 35 mP.
1.2.10. […]
Background: In fluorescence polarisation assays a small probe gives low polarisation when free and higher when bound to something large.

The mark [7] stands for this setting: Homo sapiens, MDA-MB-231, read-out: IC50 viable cell numbers, MDA-MB-231, CyQuant, 72 h.
The mark [8] stands for this setting: first Stat1:Stat1 value listed (hSIE probe).
[9] abbreviates: second Stat1:Stat1 value listed (MGFe probe).
Setting [10] is: Fig. 1C, extracts of EGF-stimulated NIH3T3/hEGFR, hSIE probe, 30 min, read-out: IC50 Stat3:Stat3.
[11] abbreviates: range over the named compounds and incubation times, read-out: IC50 Stat3 DNA-binding activity in vitro (summary range).
Where [12] appears, read: Table 1, replacement of p-fluorine (R1), read-out: EMSA IC50.

As a reminder, the IC50 is the concentration at which inhibition is half-maximal.

Like-named read-outs stand apart in the source and are kept apart here. Non-standard residues stand in square brackets, D forms with d. No end group written: not given here. pY = N[C@@H](Cc1ccc(OP(=O)(O)O)cc1)C(=O)O Bounds are passed on as bounds.

T2 sequence (P42227 2-770 limits assumed, one chain of several): as the sequence (P42227 2-770 limits assumed) above
SH2 domain of pure recombinant Stat3, sequence (P40763 whole entry, the tested form may be a part): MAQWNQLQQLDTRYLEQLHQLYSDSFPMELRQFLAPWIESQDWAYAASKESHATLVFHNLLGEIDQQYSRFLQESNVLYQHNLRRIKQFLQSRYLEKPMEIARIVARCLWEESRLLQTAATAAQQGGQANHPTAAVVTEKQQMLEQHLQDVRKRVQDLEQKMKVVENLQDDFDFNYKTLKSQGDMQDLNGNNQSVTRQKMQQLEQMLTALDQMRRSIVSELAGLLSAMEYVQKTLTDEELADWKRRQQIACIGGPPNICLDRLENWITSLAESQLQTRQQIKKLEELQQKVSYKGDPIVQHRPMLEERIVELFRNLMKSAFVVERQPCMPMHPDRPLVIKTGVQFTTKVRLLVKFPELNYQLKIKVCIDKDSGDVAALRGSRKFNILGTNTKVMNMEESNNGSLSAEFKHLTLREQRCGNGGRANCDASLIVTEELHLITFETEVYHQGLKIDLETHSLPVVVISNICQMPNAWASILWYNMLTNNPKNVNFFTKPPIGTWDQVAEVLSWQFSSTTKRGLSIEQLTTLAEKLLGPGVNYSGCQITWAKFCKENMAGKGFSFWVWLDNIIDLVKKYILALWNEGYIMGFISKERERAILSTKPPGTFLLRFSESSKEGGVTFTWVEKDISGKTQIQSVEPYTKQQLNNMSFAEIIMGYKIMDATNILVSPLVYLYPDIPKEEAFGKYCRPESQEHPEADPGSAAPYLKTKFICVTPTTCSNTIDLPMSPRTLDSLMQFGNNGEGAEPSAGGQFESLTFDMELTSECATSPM

As for `O=C(NO)c1ccc(N(Cc2ccc(C3CCCCC3)cc2)C(=O)[C@H]2CCN2S(=O)(=O)c2c(F)c(F)c(F)c(F)c2F)c(F)c1` [Compound H105], the half-inhibitory concentration (IC50) in the data set on MDA-MB-231 cells (setting [7]) was 2.6 to 3.6 µM; in data set [1], 20 µM; in the data set on MDA-MB-468 cells, 2.6 to 3.6 µM; in data set [2] (setting [8]), 15.8 µM; in data set [2] (setting [9]) it was over 20 µM; in data set [3] it was 8.3 µM. For the same compound, the concentration for half-maximal inhibition (IC50) is 1.8 µM in data set [4] (setting [10]) and 1.75 to 2.07 µM in data set [4] (setting [11]).

In the case of `O=C(NO)c1ccc(N(Cc2ccc(C3CCOCC3)cc2)C(=O)[C@H]2CCN2S(=O)(=O)c2c(F)c(F)c(F)c(F)c2F)cc1O` [Compound H120], the 50% inhibitory concentration (IC50) in the data set with MDA-MB-231 cells (setting [7]) was 2.6 to 3.6 µM; in data set [1], over 20 µM; in the data set on MDA-MB-468 cells, 2.6 to 3.6 µM; in data set [2] (setting [8]) it was over 20 µM; in data set [2] (setting [9]) it was over 20 µM; in data set [3] it was 7.2 µM. Further, the IC50 in data set [4] (setting [10]) was 2.1 µM; in data set [4] (setting [11]) it was 1.75 to 2.07 µM. Besides, in data set [5] (H120 oral gavage daily 20 mg/kg for 14 days, then 30 mg/kg for 14 days), the “Tumor growth, MDA-MB-231 xenografts” value is given as “significant tumor growth inhibition”. Further, in data set [5] (the three xenograft studies), the “Body weights and obvious signs of toxicity” value is given as “No notable changes”.

In the case of `O=C(O)c1ccc(N(Cc2cnc(C3CCCCC3)cn2)C(=O)[C@H]2CCN2S(=O)(=O)c2c(F)c(F)cc(F)c2F)cc1O` [Compound H176], in data set [4], the “Stat3-inhibitory potency on replacing the para-fluorine” value is recorded as “loss of Stat3-inhibitory potency”. Further, in data set [4] (setting [12]), the IC50 was over 30 µM.

As to `O=C(O)c1ccc(N(Cc2cnc(C3CCCCC3)cn2)C(=O)[C@H]2CCN2S(=O)(=O)c2c(F)c(F)c(Cl)c(F)c2F)cc1O` [Compound H186], in data set [4], the “Stat3-inhibitory potency on replacing the para-fluorine” value is recorded as “loss of Stat3-inhibitory potency”. The IC50 in data set [4] (setting [12]) was over 30 µM.

On to `N.N.[Cl][Pt][Cl]` [cisplatin, reference compound], for which the IC50 with MDA-MB-231 cells (MDA-MB-231, DMSO or 1 μM H182 pre-treatment 6 h, then docetaxel or cisplatin, total 72 h, read-out: IC50 of chemotherapeutic agent alone or with H182) worked out at 7 µM.

Regarding “GpYLPQTV-NH2 (G[pY]LPQTV-NH2) [reference compound]”, the “Effect on FP signal” value in data set [6] is listed as “dose-dependent reduction of the FP signal down to the baseline of 45–50 mP”.

The values above are taken from paper PMC9867837 (Cancer letters, 2022).
